Results: the kinase profiling compilation of Christmann-Franck et al. (2016)

How the values were obtained:
Assay in all cases: KINOMEscan competition binding
Settings in all cases: compound 10.0 µM
PIM2 (human) = PIM2 (human) (UniProt Q9P1W9)
BMPR1A (human) = BMPR1A (human) (UniProt P36894)
MAPK7 (human) = MAPK7 (human) (UniProt Q13164)
DAPK3 (human) = DAPK3 (human) (UniProt O43293)
MAP4K4 (human) = MAP4K4 (human) (UniProt O95819)
MAPK14 (human) = MAPK14 (human) (UniProt Q16539)
NUAK2 (human) = NUAK2 (human) (UniProt Q9H093)
Sequence of NUAK2 (human) (Q9H093 whole entry, looked up): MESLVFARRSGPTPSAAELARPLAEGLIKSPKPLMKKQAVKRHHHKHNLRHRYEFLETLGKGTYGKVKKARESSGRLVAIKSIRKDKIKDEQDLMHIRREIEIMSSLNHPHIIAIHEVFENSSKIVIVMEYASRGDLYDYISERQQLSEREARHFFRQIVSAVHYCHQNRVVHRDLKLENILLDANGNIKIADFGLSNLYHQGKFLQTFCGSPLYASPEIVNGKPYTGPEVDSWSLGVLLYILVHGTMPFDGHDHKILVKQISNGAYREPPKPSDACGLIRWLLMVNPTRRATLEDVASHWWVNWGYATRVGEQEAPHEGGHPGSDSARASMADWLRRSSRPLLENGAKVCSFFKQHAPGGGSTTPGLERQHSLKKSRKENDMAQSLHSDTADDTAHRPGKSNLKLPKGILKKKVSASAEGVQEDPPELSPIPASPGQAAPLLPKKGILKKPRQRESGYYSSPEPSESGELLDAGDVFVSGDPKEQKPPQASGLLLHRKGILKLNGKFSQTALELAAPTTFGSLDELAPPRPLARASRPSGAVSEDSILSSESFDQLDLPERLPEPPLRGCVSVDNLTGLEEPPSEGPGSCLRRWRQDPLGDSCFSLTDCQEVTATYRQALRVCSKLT

TAOK3 (human) = TAOK3 (human) (UniProt Q9H2K8)
RPS6KA1 KD1 (human) = RPS6KA1 KD1 (human) (UniProt Q15418)
MAP2K3 (human) = MAP2K3 (human) (UniProt P46734)
Sequence of MAP2K3 (human) (P46734 whole entry, looked up): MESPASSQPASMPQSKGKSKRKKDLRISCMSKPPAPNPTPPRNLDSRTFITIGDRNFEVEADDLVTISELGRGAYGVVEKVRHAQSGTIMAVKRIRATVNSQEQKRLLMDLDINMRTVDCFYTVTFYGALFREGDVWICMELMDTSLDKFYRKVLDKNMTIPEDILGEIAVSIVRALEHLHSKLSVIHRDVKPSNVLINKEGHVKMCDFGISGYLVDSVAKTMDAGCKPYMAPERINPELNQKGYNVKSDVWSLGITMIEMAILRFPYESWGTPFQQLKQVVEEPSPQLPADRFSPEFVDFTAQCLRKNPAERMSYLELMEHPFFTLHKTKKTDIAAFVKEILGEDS

FLT4 (human) = FLT4 (human) (UniProt P35916)
RET (human) = RET (human) (UniProt P07949)
NLK (human) = NLK (human) (UniProt Q9UBE8)
ULK1 (human) = ULK1 (human) (UniProt O75385)
FGFR2 (human) = FGFR2 (human) (UniProt P21802)
Sequence of FGFR2 (human) (P21802 whole entry, looked up): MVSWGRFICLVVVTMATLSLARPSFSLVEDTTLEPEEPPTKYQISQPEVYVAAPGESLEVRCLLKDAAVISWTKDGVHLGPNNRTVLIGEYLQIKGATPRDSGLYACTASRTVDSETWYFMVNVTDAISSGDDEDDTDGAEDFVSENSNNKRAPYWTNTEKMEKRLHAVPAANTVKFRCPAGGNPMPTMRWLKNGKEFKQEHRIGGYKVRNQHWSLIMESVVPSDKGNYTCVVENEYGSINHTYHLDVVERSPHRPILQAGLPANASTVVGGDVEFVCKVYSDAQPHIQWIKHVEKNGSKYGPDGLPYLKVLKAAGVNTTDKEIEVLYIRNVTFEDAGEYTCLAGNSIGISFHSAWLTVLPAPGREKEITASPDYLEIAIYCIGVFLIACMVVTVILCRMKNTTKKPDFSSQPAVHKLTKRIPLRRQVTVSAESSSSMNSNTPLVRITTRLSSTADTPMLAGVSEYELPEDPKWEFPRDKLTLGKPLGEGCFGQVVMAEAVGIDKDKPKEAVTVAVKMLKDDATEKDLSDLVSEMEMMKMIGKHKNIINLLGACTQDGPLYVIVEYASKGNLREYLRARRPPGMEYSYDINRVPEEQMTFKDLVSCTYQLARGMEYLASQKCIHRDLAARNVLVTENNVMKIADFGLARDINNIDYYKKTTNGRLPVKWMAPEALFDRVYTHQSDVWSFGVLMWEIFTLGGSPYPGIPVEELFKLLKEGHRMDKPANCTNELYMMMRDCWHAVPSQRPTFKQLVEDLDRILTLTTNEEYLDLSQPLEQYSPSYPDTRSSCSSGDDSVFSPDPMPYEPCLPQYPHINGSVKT

FES (human) = FES (human) (UniProt P07332)
MET (human) = MET (human) (UniProt P08581)
EPHA2 (human) = EPHA2 (human) (UniProt P29317)
CAMK4 (human) = CAMK4 (human) (UniProt Q16566)
PIK3C2G (human) = PIK3C2G (human) (UniProt O75747)
STK10 (human) = STK10 (human) (UniProt O94804)
RPS6KA6 KD1 (human) = RPS6KA6 KD1 (human) (UniProt Q9UK32)
MAK (human) = MAK (human) (UniProt P20794)
NEK2 (human) = NEK2 (human) (UniProt P51955)
BRSK1 (human) = BRSK1 (human) (UniProt Q8TDC3)
Sequence of BRSK1 (human) (Q8TDC3 whole entry, looked up): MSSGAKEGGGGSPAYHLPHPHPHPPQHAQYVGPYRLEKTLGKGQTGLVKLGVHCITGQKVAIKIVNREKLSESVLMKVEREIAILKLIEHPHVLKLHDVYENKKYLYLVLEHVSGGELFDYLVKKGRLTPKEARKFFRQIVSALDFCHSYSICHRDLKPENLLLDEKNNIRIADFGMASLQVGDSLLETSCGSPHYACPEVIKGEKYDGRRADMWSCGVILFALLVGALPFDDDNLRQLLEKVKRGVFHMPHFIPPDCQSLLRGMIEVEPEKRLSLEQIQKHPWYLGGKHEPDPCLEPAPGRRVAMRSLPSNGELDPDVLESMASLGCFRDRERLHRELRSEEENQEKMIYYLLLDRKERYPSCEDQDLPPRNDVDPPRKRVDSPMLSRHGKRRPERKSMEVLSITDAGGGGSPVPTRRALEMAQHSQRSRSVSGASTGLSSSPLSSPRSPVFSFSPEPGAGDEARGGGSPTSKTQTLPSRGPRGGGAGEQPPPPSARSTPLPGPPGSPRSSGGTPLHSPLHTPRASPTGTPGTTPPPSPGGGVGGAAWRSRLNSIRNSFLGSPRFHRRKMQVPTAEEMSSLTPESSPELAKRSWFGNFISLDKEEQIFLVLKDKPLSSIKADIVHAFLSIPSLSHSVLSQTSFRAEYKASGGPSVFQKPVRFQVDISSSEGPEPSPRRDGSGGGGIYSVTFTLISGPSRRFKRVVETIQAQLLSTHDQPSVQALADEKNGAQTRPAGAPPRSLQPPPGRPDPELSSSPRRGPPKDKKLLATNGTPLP

RIOK1 (human) = RIOK1 (human) (UniProt Q9BRS2)
IGF1R (human) = IGF1R (human) (UniProt P08069)
PHKG1 (human) = PHKG1 (human) (UniProt Q16816)
ACVR1B (human) = ACVR1B (human) (UniProt P36896)
Sequence of ACVR1B (human) (P36896 whole entry, looked up): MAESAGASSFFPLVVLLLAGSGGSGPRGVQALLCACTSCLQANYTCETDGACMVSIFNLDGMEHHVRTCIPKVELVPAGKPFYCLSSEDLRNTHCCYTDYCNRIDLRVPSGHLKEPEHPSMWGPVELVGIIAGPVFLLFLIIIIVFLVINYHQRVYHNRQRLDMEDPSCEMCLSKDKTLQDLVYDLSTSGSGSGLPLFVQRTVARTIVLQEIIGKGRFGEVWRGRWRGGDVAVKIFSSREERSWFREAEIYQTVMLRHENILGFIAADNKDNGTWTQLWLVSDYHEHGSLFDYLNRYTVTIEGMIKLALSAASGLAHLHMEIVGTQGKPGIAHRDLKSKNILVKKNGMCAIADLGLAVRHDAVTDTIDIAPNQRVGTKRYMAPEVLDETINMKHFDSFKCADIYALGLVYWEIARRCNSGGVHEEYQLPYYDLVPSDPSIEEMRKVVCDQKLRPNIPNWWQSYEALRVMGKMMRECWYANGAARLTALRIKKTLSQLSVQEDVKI

PKN2 (human) = PKN2 (human) (UniProt Q16513)
PDGFRA (human) = PDGFRA (human) (UniProt P16234)
Sequence of PDGFRA (human) (P16234 whole entry, looked up): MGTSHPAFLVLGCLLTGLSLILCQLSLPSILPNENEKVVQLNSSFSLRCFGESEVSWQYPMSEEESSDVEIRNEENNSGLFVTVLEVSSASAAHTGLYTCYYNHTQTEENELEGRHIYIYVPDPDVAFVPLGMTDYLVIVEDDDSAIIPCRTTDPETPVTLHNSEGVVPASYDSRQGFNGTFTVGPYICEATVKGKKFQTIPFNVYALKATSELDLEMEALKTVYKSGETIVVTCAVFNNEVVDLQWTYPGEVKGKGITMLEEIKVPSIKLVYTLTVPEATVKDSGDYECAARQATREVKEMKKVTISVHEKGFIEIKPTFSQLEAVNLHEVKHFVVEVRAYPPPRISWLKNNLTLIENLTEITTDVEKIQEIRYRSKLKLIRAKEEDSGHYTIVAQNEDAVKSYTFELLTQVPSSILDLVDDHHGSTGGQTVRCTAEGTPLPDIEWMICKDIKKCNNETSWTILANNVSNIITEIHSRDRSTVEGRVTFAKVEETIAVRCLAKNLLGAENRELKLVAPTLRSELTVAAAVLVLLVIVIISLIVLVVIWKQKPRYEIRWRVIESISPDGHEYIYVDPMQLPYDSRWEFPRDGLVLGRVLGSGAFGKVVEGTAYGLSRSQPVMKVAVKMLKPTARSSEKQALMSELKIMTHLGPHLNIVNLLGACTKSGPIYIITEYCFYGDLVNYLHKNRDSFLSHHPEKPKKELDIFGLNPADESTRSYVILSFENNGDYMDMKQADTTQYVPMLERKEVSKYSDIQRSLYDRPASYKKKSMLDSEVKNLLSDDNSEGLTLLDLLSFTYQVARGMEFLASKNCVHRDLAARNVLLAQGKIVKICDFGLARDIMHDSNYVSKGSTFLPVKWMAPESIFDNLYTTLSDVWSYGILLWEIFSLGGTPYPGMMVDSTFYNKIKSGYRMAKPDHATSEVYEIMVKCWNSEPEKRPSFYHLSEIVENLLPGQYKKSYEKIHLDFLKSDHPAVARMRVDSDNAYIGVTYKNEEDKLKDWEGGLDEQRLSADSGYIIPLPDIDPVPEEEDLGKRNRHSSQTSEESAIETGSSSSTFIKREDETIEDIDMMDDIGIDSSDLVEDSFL

DDR2 (human) = DDR2 (human) (UniProt Q16832)
BMPR1B (human) = BMPR1B (human) (UniProt O00238)
FER (human) = FER (human) (UniProt P16591)
PAK6 (human) = PAK6 (human) (UniProt Q9NQU5)
TGFBR1 (human) = TGFBR1 (human) (UniProt P36897)
CLK4 (human) = CLK4 (human) (UniProt Q9HAZ1)
CAMKK1 (human) = CAMKK1 (human) (UniProt Q8N5S9)
Sequence of CAMKK1 (human) (Q8N5S9 whole entry, looked up): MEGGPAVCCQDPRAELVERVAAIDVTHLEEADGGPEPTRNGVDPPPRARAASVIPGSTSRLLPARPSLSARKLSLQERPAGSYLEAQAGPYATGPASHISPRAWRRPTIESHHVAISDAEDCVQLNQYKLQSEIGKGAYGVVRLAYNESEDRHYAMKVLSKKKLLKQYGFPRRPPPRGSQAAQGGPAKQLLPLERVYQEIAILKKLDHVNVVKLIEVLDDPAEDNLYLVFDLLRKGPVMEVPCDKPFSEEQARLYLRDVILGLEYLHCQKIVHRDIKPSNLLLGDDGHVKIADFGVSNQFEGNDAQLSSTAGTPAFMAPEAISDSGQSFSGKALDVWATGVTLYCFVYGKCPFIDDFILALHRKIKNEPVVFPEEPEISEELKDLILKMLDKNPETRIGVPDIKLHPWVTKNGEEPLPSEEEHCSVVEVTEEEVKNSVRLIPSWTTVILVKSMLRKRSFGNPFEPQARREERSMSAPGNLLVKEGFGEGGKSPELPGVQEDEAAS

Sequence of MAPK14 (human) (Q16539 whole entry, looked up): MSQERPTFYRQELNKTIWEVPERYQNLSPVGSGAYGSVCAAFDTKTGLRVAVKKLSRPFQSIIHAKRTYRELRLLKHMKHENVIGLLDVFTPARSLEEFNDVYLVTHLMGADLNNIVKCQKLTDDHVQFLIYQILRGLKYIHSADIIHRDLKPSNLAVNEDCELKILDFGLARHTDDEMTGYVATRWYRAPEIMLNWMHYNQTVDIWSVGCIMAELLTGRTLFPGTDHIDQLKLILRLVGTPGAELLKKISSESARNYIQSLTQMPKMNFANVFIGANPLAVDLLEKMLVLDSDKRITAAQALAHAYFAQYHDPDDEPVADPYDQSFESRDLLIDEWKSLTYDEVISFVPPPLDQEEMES

| kinase still bound, per cent of control (PIM2 (human)) | kinase still bound, per cent of control (BMPR1A (human)) | kinase still bound, per cent of control (MAPK7 (human)) | kinase still bound, per cent of control (DAPK3 (human)) | kinase still bound, per cent of control (MAP4K4 (human)) | kinase still bound, per cent of control (MAPK14 (human)) | kinase still bound, per cent of control (NUAK2 (human)) | kinase still bound, per cent of control (TAOK3 (human)) | kinase still bound, per cent of control (RPS6KA1 KD1 (human)) | kinase still bound, per cent of control (MAP2K3 (human)) | kinase still bound, per cent of control (FLT4 (human)) | kinase still bound, per cent of control (RET (human)) | kinase still bound, per cent of control (NLK (human)) | kinase still bound, per cent of control (ULK1 (human)) | kinase still bound, per cent of control (FGFR2 (human)) | kinase still bound, per cent of control (FES (human)) | kinase still bound, per cent of control (MET (human)) | kinase still bound, per cent of control (EPHA2 (human)) | kinase still bound, per cent of control (CAMK4 (human)) | kinase still bound, per cent of control (STK10 (human)) | also measured | SMILES |
| --- | --- | --- | --- | --- | --- | --- | --- | --- | --- | --- | --- | --- | --- | --- | --- | --- | --- | --- | --- | --- | --- |
| 100% | 100% | 0% | 100% | 100% | 100% | 14% | 2% | 100% | 100% | 100% | 100% | 100% | 2.9% | 100% | 100% | 100% | 100% | 100% | 100% | kinase still bound, per cent of control (PIK3C2G (human)): 100%; kinase still bound, per cent of control (RPS6KA6 KD1 (human)): 100%; kinase still bound, per cent of control (MAK (human)): 100%; kinase still bound, per cent of control (NEK2 (human)): 100%; kinase still bound, per cent of control (BRSK1 (human)): 100%; kinase still bound, per cent of control (RIOK1 (human)): 100%; kinase still bound, per cent of control (IGF1R (human)): 100%; kinase still bound, per cent of control (PHKG1 (human)): 100%; kinase still bound, per cent of control (ACVR1B (human)): 100%; kinase still bound, per cent of control (PKN2 (human)): 100%; kinase still bound, per cent of control (PDGFRA (human)): 100%; kinase still bound, per cent of control (DDR2 (human)): 100%; kinase still bound, per cent of control (BMPR1B (human)): 100%; kinase still bound, per cent of control (FER (human)): 32%; kinase still bound, per cent of control (PAK6 (human)): 100%; kinase still bound, per cent of control (TGFBR1 (human)): 100%; kinase still bound, per cent of control (CLK4 (human)): 100%; kinase still bound, per cent of control (CAMKK1 (human)): 100% | COc1cc(N2CCN(C)CC2)ccc1Nc1ncc2c(n1)N(C)c1ccccc1C(=O)N2C |
| 100% | 100% | 100% | 100% | 100% | 100% | 100% | 100% | 100% | 100% | 100% | 100% | 100% | 100% | 100% | 100% | 100% | 100% | 100% | 100% | kinase still bound, per cent of control (RPS6KA6 KD1 (human)): 100%; kinase still bound, per cent of control (MAK (human)): 100%; kinase still bound, per cent of control (NEK2 (human)): 100%; kinase still bound, per cent of control (BRSK1 (human)): 100%; kinase still bound, per cent of control (RIOK1 (human)): 100%; kinase still bound, per cent of control (IGF1R (human)): 100%; kinase still bound, per cent of control (PHKG1 (human)): 100%; kinase still bound, per cent of control (ACVR1B (human)): 100%; kinase still bound, per cent of control (PKN2 (human)): 100%; kinase still bound, per cent of control (PDGFRA (human)): 0%; kinase still bound, per cent of control (DDR2 (human)): 100%; kinase still bound, per cent of control (BMPR1B (human)): 100%; kinase still bound, per cent of control (FER (human)): 100%; kinase still bound, per cent of control (PAK6 (human)): 100%; kinase still bound, per cent of control (TGFBR1 (human)): 100%; kinase still bound, per cent of control (CAMKK1 (human)): 100% | CS(=O)(=O)N1CCN(Cc2cc3nc(-c4cccc5[nH]ncc45)nc(N4CCOCC4)c3s2)CC1 |
| 100% | 100% | 9.7% | 100% | 100% | 100% | 100% | 0.9% | 100% | 100% | 0.1% | 0.6% | 100% | 100% | 1.9% | 4% | 100% | 100% | 100% | 0.1% | kinase still bound, per cent of control (RPS6KA6 KD1 (human)): 100%; kinase still bound, per cent of control (NEK2 (human)): 100%; kinase still bound, per cent of control (BRSK1 (human)): 100%; kinase still bound, per cent of control (RIOK1 (human)): 100%; kinase still bound, per cent of control (IGF1R (human)): 16%; kinase still bound, per cent of control (PHKG1 (human)): 100%; kinase still bound, per cent of control (ACVR1B (human)): 100%; kinase still bound, per cent of control (PKN2 (human)): 100%; kinase still bound, per cent of control (PDGFRA (human)): 2.2%; kinase still bound, per cent of control (DDR2 (human)): 100%; kinase still bound, per cent of control (BMPR1B (human)): 100%; kinase still bound, per cent of control (FER (human)): 100%; kinase still bound, per cent of control (PAK6 (human)): 100%; kinase still bound, per cent of control (TGFBR1 (human)): 100%; kinase still bound, per cent of control (CLK4 (human)): 100%; kinase still bound, per cent of control (CAMKK1 (human)): 100% | C=CC(=O)Nc1ccc(CN(C(=O)Nc2c(Cl)c(OC)cc(OC)c2Cl)c2cc(Nc3ccc(N4CCN(C)CC4)cc3)ncn2)cc1 |
